ChEMBL document CHEMBL1201862, “PubChem BioAssay data set” (2004)
Activity calls are given as the source filed them.

How the values were obtained:
[1] = inhibitors of firefly luciferase expression or activity, dose response, H4 neuroglioma cells, luminescence (AID 1990); format: functional, cell-based
[2] = Luminescence Cell-Based Dose Response HTS to Identify Inhibitors of 5'UTR Stem-Loop Driven Prion Protein mRNA Translation in H4 Neuroglioblastoma Cells. [Related pubchem assays: 1827 (Project Summary), 1813 (Primary HTS)]; format: functional
[3] = inhibitors of SNCA 5'UTR-driven reporter translation, confirmation, H4 neuroglioma cells, luminescence (AID 1988); format: functional, cell-based
[4] = biological target: Glucose-6-phosphate 1-dehydrogenase (Homo sapiens, UniProt P11413); assay: human G6PD enzyme inhibitors, dose response, selectivity assay for P. falciparum G6PD inhibitor project, biochemical, fluorescence (AID 504792); format: functional
[5] = biological target: DNA dC->dU-editing enzyme APOBEC-3A (Homo sapiens, UniProt P31941); assay: Dose Response confirmation of small molecule APOBEC3A DNA Deaminase Inhibitors via a fluorescence-based single-stranded DNA deaminase assay. [Related pubchem assays (depositor defined):AID493011, AID493024]; format: functional
[6] = biological target: DNA dC->dU-editing enzyme APOBEC-3G (Homo sapiens, UniProt Q9HC16); format: functional;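 also: Dose-response counterscreen measuring inhibition of APOBEC3G DNA deaminase activity, run while confirming APOBEC3A inhibitors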
[7] = biological target: T1, Short transient receptor potential channel 4 (Mus musculus, UniProt Q9QUQ5); assay: mouse TRPC4 channel activators, dose response, cell-based, HEK293 TRPC4/mu-opioid, Fluo-4 calcium (AID 434937); format: functional
T1 sequence (Q9QUQ5 whole entry): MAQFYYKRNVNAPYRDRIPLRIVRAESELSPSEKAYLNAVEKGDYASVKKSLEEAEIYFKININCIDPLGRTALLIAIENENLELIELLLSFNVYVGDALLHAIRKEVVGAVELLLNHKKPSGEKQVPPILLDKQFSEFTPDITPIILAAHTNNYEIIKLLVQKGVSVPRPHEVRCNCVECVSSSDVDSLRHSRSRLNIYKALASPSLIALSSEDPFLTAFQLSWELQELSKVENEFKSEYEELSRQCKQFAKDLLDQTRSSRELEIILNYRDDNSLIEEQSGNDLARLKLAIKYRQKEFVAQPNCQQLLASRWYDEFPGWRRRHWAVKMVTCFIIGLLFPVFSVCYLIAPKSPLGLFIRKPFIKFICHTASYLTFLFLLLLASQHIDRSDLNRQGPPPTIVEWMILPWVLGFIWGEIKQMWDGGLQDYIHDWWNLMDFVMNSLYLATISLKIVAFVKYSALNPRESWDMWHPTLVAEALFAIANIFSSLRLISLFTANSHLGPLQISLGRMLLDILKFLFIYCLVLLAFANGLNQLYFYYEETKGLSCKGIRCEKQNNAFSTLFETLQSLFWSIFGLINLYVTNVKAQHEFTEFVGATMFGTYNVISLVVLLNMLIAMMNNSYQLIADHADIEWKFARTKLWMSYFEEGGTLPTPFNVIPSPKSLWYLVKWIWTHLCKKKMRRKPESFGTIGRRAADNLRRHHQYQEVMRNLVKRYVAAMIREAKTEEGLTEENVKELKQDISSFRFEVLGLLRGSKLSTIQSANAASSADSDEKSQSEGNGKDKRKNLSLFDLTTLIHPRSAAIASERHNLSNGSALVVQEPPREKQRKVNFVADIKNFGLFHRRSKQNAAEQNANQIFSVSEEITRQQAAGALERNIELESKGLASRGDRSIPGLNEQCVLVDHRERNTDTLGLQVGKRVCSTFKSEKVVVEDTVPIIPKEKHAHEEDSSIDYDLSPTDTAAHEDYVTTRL

[8] = C. albicans growth with fluconazole, confirmation, fluorescence, retest (AID 2467); format: functional, cell-based
[9] = NIH-3T3 fibroblast cytotoxicity, dose response, cytotoxicity control, cell-based, fluorescence, Alamar Blue, secondary assay (AID 2327); format: functional;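 also: NIH-3T3 mouse fibroblasts cultured with fluconazole at 8 µg/mL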
[10] = biological target: T2, Histone-lysine N-methyltransferase NSD2 (Homo sapiens, UniProt O96028); format: biochemical
T2 sequence (O96028 whole entry): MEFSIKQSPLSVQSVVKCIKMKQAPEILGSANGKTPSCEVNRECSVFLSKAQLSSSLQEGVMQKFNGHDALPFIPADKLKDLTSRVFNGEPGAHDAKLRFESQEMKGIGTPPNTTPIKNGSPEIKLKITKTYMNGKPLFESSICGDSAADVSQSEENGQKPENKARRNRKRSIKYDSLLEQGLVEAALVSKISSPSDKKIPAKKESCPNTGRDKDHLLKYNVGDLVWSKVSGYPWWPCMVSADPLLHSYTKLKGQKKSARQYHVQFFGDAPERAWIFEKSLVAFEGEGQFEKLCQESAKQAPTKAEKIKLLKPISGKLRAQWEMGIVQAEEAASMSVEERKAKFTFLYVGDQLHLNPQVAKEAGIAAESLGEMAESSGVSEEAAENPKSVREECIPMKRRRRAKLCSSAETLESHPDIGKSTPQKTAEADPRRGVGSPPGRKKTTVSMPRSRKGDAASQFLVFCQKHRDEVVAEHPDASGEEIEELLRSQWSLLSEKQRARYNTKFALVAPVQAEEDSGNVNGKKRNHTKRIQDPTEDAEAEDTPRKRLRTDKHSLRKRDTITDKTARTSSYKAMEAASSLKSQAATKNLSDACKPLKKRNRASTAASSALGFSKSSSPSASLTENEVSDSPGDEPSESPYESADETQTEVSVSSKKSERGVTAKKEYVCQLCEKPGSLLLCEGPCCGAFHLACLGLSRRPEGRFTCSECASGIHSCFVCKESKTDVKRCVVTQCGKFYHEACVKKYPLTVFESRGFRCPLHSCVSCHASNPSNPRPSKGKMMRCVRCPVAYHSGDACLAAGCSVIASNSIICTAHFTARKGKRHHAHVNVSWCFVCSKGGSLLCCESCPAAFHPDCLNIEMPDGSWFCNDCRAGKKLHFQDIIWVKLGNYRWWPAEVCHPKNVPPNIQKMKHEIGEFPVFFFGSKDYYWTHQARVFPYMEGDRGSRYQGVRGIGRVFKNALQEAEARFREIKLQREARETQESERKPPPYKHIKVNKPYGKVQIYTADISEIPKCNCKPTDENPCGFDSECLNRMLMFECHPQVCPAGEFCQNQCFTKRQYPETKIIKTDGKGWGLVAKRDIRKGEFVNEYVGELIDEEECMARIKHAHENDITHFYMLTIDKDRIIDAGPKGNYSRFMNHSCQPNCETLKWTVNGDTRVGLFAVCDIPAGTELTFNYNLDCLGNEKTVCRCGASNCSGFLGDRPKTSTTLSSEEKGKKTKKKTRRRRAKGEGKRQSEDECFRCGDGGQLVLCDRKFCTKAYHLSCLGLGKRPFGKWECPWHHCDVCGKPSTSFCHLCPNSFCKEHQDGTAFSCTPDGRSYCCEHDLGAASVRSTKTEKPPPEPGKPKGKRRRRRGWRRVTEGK

Cytochrome P450 2C9 = Cytochrome P450 2C9 (Homo sapiens, UniProt P11712)
Leucine aminopeptidase = biological target: T3, Leucine aminopeptidase (Plasmodium falciparum 3D7, UniProt Q8IL11); assay: P. falciparum M17LAP inhibitors, primary screen, biochemical, fluorogenic H-Leu-NHMec substrate, 1536-well (AID 1619); format: functional
T3 sequence (Q8IL11 whole entry): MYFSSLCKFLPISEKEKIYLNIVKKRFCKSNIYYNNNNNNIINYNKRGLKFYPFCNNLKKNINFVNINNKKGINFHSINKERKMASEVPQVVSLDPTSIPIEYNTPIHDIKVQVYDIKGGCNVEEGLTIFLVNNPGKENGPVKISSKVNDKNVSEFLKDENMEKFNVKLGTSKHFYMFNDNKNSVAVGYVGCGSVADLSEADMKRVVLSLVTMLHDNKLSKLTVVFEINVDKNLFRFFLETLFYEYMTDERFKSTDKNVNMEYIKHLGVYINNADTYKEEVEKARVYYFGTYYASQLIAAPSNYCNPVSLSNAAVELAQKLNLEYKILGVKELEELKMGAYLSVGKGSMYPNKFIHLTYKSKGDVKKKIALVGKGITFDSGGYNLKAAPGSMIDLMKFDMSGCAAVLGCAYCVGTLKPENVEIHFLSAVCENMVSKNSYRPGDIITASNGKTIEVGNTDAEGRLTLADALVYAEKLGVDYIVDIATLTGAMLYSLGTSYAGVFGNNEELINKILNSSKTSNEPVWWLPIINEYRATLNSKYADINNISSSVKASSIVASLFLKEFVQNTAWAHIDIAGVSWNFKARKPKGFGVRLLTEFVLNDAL

Cytochrome P450 2C19 = Cytochrome P450 2C19 (Homo sapiens, UniProt P33261); assay: Cytochrome panel assay with activity outcomes. Panel member name: p450-cyp2c19 Compounds with AC50 equal or less than 10 uM are considered active; format: functional; conditions: read-out: AC50
Streptokinase A = biological target: T4, Streptokinase A (Streptococcus pyogenes serotype M1, UniProt P10520); assay: S. pyogenes streptokinase expression inhibitors, potency, dose response, plasminogen activation absorbance, OD405 (AID 1914); format: functional, Streptococcus pyogenes M1 GAS;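 also: secreted streptokinase activity via plasminogen activation per viability signal from cell pellet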
T4 sequence (P10520 whole entry): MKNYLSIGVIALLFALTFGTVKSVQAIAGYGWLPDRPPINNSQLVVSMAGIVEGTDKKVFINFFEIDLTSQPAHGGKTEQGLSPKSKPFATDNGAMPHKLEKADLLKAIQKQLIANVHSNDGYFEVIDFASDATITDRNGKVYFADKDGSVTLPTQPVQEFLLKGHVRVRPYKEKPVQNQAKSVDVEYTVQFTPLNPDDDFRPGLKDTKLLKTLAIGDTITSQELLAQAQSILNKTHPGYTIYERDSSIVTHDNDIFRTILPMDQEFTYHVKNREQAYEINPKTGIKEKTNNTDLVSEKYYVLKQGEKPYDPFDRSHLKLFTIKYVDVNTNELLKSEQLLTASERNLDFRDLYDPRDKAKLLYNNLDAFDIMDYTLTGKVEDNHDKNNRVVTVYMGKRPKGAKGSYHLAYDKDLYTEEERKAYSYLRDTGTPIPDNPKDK

[11] = biological target: Voltage-dependent T-type calcium channel subunit alpha-1H (Homo sapiens, UniProt O95180); format: functional;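 also: channel activity triggered by adding a high calcium stimulation buffer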
[12] = test system: Streptococcus sp. 'group A'; assay: growth inhibition of control SK(-) GAS strain, dose response, counter-screen for streptokinase expression inhibitor project, luminescence, kanamycin, BacTiterGlo, confirmation (AID 1900); format: functional, organism-based
Streptococcus = assay: Group A Streptococcus viability loss, dose response, counter-screen for streptokinase expression inhibitor project, luminescence, BacTiterGlo (AID 1915); format: functional, organism-based;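 also: potency for reduction of bacterial viability or growth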
[13] = Luminescence Cell-Based Dose Retest to Confirm Inhibitors of Cancer Stem Cells. [Related pubchem assays (depositor defined):AID2717, AID2721]; format: functional; conditions: Homo sapiens

Chain of Cytochrome P450 2C9 (P11712 whole entry): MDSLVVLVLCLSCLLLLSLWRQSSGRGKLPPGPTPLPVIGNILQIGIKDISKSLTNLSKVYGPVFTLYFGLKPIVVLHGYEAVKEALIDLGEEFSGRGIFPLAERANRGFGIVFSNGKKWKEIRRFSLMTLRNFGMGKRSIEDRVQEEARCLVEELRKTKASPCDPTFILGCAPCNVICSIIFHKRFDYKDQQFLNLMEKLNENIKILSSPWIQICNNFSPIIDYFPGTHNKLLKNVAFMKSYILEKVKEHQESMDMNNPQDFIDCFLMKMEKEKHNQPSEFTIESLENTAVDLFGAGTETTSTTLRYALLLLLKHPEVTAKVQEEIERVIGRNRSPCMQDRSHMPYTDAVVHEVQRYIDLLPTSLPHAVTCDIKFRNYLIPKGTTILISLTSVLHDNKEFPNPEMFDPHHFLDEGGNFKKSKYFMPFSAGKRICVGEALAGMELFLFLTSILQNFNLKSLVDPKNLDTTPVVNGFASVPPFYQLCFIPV
Chain of DNA dC->dU-editing enzyme APOBEC-3G (Q9HC16 whole entry): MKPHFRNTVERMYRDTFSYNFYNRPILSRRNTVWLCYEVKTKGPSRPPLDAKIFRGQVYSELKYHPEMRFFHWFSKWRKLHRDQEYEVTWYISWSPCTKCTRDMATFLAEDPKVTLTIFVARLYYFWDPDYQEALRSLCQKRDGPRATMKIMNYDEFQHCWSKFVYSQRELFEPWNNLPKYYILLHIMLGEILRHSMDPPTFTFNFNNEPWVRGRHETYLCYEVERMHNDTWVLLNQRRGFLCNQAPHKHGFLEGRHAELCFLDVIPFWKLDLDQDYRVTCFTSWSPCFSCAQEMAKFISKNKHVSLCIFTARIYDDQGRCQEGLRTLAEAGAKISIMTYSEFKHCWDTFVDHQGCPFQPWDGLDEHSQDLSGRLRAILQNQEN
Chain of DNA dC->dU-editing enzyme APOBEC-3A (P31941 whole entry): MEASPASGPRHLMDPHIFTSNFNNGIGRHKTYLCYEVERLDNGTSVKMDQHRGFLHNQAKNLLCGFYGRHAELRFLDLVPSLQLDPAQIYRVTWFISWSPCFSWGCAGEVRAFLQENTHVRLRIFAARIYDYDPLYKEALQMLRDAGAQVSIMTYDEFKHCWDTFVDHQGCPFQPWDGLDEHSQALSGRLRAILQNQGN
Chain of Glucose-6-phosphate 1-dehydrogenase (P11413 whole entry): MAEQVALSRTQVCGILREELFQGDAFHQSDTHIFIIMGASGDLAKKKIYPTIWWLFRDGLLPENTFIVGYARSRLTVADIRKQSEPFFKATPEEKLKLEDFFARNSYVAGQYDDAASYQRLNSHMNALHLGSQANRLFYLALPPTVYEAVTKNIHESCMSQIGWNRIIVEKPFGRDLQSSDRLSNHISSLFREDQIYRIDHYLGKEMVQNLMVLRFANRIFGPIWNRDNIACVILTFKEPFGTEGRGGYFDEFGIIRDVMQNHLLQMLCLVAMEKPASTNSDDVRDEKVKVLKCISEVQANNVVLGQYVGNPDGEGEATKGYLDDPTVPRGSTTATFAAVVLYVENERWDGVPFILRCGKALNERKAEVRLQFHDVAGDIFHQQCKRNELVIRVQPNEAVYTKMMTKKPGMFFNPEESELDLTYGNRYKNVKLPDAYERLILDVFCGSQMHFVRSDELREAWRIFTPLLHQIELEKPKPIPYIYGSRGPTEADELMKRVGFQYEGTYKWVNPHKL
Chain of Voltage-dependent T-type calcium channel subunit alpha-1H (O95180 whole entry): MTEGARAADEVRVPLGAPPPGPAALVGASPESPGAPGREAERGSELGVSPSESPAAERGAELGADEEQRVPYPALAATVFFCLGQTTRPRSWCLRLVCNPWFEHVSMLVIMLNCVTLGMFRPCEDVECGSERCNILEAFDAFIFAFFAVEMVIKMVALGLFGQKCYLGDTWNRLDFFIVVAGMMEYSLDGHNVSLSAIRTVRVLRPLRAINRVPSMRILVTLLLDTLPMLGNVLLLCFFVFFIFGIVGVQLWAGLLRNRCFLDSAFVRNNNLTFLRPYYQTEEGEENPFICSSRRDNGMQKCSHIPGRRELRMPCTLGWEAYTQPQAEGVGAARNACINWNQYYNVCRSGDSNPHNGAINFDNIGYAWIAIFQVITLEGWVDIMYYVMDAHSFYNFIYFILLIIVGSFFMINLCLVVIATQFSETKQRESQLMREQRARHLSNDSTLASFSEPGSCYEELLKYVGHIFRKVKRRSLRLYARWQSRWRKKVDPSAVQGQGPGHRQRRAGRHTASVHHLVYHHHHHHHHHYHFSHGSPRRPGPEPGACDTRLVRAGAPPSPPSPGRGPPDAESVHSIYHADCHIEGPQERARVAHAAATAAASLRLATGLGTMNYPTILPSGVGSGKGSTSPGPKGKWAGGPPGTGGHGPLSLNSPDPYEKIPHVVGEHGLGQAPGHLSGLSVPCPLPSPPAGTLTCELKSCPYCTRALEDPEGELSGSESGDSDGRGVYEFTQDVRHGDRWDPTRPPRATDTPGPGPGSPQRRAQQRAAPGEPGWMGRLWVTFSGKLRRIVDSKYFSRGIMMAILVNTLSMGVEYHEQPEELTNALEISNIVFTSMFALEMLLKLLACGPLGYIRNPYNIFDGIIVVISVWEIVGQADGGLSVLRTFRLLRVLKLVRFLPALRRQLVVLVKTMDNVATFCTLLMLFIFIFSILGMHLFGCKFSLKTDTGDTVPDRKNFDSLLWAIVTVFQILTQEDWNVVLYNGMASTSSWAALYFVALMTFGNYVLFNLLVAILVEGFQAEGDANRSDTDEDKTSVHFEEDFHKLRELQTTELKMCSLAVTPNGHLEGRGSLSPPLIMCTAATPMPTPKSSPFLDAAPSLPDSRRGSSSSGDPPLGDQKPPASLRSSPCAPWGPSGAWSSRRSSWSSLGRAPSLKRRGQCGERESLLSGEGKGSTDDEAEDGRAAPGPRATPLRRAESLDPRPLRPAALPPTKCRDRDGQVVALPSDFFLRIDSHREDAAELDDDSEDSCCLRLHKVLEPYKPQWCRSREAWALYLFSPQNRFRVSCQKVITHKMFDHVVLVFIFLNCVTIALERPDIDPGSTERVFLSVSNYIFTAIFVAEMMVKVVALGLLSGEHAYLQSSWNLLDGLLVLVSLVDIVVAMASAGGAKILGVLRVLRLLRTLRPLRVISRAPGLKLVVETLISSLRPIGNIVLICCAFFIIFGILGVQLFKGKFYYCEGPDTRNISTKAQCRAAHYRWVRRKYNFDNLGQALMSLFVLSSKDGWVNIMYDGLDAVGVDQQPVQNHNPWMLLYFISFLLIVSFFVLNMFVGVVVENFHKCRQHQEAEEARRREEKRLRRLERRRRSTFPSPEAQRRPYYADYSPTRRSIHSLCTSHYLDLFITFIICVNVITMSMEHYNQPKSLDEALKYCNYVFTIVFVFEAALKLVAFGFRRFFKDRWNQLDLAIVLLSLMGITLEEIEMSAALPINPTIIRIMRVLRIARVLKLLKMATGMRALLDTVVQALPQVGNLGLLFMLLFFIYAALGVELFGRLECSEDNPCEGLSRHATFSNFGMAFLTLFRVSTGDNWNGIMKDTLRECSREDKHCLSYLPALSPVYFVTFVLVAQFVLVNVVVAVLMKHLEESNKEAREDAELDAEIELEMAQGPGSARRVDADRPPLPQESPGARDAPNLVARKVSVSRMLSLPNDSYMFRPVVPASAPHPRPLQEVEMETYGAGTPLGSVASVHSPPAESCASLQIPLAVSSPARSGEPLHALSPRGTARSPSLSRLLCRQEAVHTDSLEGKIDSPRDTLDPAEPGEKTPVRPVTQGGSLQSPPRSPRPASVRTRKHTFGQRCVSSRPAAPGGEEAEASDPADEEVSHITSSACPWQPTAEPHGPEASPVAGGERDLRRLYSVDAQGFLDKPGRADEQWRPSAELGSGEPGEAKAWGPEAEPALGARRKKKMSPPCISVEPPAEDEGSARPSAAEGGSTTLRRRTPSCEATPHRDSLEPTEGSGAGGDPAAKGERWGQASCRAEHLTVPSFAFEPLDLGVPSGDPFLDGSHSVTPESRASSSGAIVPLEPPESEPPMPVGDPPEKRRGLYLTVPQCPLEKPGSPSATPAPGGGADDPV
Chain of Cytochrome P450 2C19 (P33261 whole entry): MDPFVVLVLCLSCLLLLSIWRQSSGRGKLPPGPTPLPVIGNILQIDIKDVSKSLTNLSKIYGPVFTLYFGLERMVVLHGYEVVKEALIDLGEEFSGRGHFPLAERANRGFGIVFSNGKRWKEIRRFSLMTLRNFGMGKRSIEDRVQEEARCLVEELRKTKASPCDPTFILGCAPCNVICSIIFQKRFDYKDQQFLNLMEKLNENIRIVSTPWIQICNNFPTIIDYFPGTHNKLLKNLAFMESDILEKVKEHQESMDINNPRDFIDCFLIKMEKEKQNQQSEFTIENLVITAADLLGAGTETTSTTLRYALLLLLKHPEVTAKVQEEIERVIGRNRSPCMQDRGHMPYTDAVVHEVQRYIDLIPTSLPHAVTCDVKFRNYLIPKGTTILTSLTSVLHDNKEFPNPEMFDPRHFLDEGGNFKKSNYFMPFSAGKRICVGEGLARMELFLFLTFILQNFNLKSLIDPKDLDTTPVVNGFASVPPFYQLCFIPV

SMILES: CN(C)c1cccc2c1c(NC(=O)c1ccc(Cl)cc1)nn2C
- EC50 [1]: > 120 µM (not active)
- EC50 [2]: > 120 µM (not active)
- EC50 [3]: 24.2 µM (active)
- IC50 [4]: > 80 µM (inactive)

SMILES: CC1=CC(C)C(C[N+]2(C)CCCCC2)C(C)C1 (centres undefined)
- IC50 [5]: 6.16 µM (active)
- IC50 [6]: 6.31 µM (active)

SMILES: CCCCC(=O)NNC(=S)NC(=O)c1ccc(C)cc1
- EC50 [7]: 2.99 µM (active)
- EC50 [8]: 1.43 µM (active)
- EC50 [9]: > 150 µM (inconclusive)

SMILES: O=[N+]([O-])c1ccc(N2CCCC2)cc1N1CCCC1
- AC50 [10]: > 20 µM (inactive)
- AC50 (Cytochrome P450 2C9): inconclusive

SMILES: O=C1Nc2ccc(F)cc2C12SCCS2
- AC50 (Cytochrome P450 2C9): inconclusive

SMILES: COc1ccc(NC(=O)CN2c3cccc4cccc(c34)S2(=O)=O)cc1
- IC50 (Leucine aminopeptidase): 3.84 µM (active)
- AC50 (Cytochrome P450 2C9): inconclusive

SMILES: Cc1ccc2[nH]c(SCC(=O)NC3CCCc4ccccc43)nc2c1 (centres undefined)
- IC50 [4]: > 80 µM (inactive)

SMILES: CC(C)CC1CCCCC1OC(=O)C[N+]1(C)CCCCC1 (centres undefined)
- IC50 [5]: 2.2 µM (active)
- IC50 [6]: 2.29 µM (active)

SMILES: COc1ccc(NC(=O)c2cc(C(C)C)on2)cc1OC
- AC50 (Cytochrome P450 2C19): 20 µM (inconclusive)
- AC50 (Cytochrome P450 2C9): inconclusive

SMILES: CCn1c(N)[n+](CC(=O)Nc2ccc(SC(F)F)cc2)c2ccccc21
- EC50 [7]: 4.22 µM (active)

SMILES: C[n+]1ccccc1/C=C/c1ccc2ncccc2c1
- IC50 [5]: 0.892 µM (active)
- IC50 [6]: 1.92 µM (active)

SMILES: Cc1cc(-c2ccc(C)c(S(=O)(=O)NCCCN(Cc3ccccc3)C(C)C)c2)on1
- EC50 [7]: 1.33 µM (active)

SMILES: CCOC(=O)C1(CCOc2ccccc2)CCN(Cc2ccc(NC(C)=O)cc2)CC1
- EC50 [7]: 0.211 µM (active)

SMILES: O/N=C(\c1ccc(Cl)cc1Cl)c1ncc(C(F)(F)F)cc1Cl
- EC50 (Streptokinase A): 35.2 µM (active)
- EC50 [11]: 2.11 µM (active)
- EC50 [12]: 10.6 µM (active)
- EC50 (Streptococcus): > 150 µM (not active)
- AC50 [13]: 8.81 µM (active)
